Results from patent US12247004B2, “2-amino-N-(amino-oxo-aryl-lambda6-sulfanylidene)acetamide compounds and their therapeutic use” (Oxford Drug Design Limited, priority 2019, dated 2025).
In brackets after ≈: the same amount, converted by molar mass. Like-named read-outs stand apart in the source and are kept apart here.

How the values were obtained:
E. coli UT189 = assay: Efficacy in a murine model of urinary tract infection (microbial burden in urine, bladder, kidney); format: in vivo; details: Experiment 2, mouse UTI
Procedure: All animal studies were performed under UK Home Office License PA67E0BAA (protocol E9 for UTI model) with local ethical committee clearance. All studies were performed by technicians who have completed parts A, B and C of the UK Home Office Personal License course and hold current personal licenses. All experiments were performed in dedicated Biohazard 2 facilities (the site holds a Certificate of Designation). Female mice used in these studies were supplied by Janvier laboratories and were specific pathogen free. The strain of mouse used was C3H/HeNRj, which is a well characterized inbred strain. Mice were 16-20 g on receipt and were allowed to acclimatize for at least 7 days prior to any intervention. Five days prior to infection mice were transferred onto drinking water containing 5% glucose. […] It was stored at 4° C. between doses. Test articles were prepared by solubilising in water for injection, taking the salt correction factor into account. […] Mice (n=6 per group) were infected by directly administering 0.05 mL of inoculum via the urethra into the bladder under parenteral anaesthesia. Drinking water was withheld two hours pre-infection and bladders were emptied prior to infection. Once infected, infection catheters were left in the urinary tract for 10 minutes to reduce the risk of the organism flowing back out. The mice were monitored at a frequency appropriate for their clinical condition. Mouse weights were recorded at least once daily both to ensure animals remained within ethical limits and to monitor efficacy of treatment. Twenty-four hours post infection, urine was collected from pre-treatment animals and used to assess the infection level. Urine samples were quantitatively cultured onto MacConkey's agar plates and incubated at 37° C. for 24 hours before colonies were counted. In addition, five mice were euthanised by pentobarbitone overdose to provide a 24 hour pre-treatment control group. Forty-eight hours post-infection, urine was collected from all mice. Seventy-two hours post infection, the clinical condition and body weight of all remaining animals was assessed and urine samples were collected. Animals were then euthanised by pentobarbitone overdose and kidneys and bladders were removed and weighed. Tissue samples were homogenized using a Precellys 24 dual bead beater in 2 mL ice cold sterile phosphate buffered saline. Homogenates and urine samples were quantitatively cultured onto MacConkey's agar plates and incubated at 37° C. for 24 hours before colonies were counted. Data Analysis The data from the culture burdens were analysed using appropriate non-parametric statistical models (Kruskal-Wallis using Conover-Inman to make all pairwise comparisons between groups) with StatsDirect software, and compared to pretreatment and vehicle controls.

[1] = system: bacteria (ATCC reference strains); assay: Antibacterial activity, MIC by broth micro-dilution (CLSI)
[2] = biological target: Leucyl-tRNA synthetase (LeuRS) (Escherichia coli (strain K12), UniProt P07813); assay: Leucyl-tRNA synthetase enzyme inhibition (AMP-Glo; single point % inhibition at 100 μM and IC50); format: biochemical
Sequence of Leucyl-tRNA synthetase (LeuRS) (P07813 whole entry, looked up): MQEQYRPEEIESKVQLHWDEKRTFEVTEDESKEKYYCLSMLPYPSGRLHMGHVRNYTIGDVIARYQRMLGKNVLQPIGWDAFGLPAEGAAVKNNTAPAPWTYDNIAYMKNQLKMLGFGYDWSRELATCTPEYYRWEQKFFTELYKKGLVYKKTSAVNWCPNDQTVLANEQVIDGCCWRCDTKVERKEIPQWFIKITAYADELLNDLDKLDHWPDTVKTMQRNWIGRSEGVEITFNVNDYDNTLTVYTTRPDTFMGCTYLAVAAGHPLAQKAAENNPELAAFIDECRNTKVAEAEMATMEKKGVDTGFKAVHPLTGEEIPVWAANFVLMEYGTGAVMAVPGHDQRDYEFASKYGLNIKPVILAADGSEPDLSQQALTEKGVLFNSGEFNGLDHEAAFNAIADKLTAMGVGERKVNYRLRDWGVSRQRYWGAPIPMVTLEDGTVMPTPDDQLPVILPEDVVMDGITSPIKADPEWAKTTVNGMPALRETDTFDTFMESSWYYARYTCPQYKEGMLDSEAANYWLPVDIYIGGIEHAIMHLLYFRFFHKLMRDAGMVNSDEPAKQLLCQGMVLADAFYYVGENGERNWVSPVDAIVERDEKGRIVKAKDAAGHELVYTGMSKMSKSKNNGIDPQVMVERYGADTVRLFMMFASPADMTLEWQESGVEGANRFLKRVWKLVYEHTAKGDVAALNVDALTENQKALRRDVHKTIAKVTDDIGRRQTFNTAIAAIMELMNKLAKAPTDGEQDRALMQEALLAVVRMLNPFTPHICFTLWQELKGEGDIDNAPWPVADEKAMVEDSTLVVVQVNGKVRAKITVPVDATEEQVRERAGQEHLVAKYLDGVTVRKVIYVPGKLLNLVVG

[3] = Human cell viability / cytotoxicity (CellTiter-Glo, 24 hours); format: cell-based; details: human, HepG2 cells (ATCC HB-8065); HepG2 ATCC HB-8065, 24 hours; read-out: Cytotoxicity in HepG2 ATCC HB-8065 Cell Line, IC50
How it was run: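 HepG2 cells (15,000/well, MEM with 1% NEAA and 1% pyruvate) were grown 2 days, then exposed to compounds in duplicate for 24 h at 1.28% DMSO. Viability was read as ATP by CellTiter-Glo luminescence relative to DMSO-only wells. IC50 is in μg/mL.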

[4] = biological target: Isoleucyl-tRNA synthetase (IleRS) (Escherichia coli (strain K12), UniProt P00956); assay: Isoleucyl-tRNA synthetase enzyme inhibition (AMP-Glo; single point % inhibition at 100 μM and IC50); format: biochemical; details: E. coli IleRS; read-out: Enzyme Inhibition - IC50, E. coli IleRS
Sequence of Isoleucyl-tRNA synthetase (IleRS) (P00956 whole entry, looked up): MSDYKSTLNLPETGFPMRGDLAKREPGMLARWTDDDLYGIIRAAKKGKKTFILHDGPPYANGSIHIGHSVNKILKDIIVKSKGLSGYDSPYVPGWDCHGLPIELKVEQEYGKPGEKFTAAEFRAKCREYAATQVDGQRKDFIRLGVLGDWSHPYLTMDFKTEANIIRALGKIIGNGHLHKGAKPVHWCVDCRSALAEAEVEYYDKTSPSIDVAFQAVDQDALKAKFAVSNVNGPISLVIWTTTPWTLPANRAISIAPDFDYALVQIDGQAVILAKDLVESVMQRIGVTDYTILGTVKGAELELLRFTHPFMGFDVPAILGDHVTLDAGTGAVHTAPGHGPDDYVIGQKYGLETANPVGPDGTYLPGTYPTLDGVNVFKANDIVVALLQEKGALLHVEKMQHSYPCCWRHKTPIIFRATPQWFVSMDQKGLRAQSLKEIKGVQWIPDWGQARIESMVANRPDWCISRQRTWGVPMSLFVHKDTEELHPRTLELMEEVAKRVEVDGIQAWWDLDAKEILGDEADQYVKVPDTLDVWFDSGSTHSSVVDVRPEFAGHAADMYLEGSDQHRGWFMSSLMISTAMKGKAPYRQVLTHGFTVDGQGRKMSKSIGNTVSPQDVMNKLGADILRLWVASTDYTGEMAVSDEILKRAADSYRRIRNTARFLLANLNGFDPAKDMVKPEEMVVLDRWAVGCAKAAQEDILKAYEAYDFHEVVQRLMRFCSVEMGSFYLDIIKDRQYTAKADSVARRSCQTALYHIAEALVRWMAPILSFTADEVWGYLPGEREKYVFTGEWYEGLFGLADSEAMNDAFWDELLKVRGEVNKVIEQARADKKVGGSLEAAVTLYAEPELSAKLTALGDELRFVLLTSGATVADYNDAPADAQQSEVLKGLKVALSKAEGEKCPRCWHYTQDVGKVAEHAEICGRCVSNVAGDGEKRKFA
Description: Study 1—Enzyme Inhibition
The aminoacylation reaction catalyzed by aminoacyl-tRNA synthetases (aaRS) takes place in two steps. In the first step, aaRS activates its cognate amino acid with ATP; and in the second step the activated amino acid is loaded to its corresponding tRNA. This reaction can be summarized as follows: aaRS+aa+ATP=aaRS-aa-AMP+PPi aaRS-aa-AMP+tRNA=aa-tRNA+AMP+aaRS […]
wherein: aaRS, aminoacyl-tRNA synthetase; aa, amino acid; aaRS-aa-AMP, enzyme-bound to aminoacyl-adenylate; AMP, adenosine monophosphate; aa-tRNA, aminoacyl-tRNA, PPi, inorganic pyrophosphate.
Isoleucyl-tRNA Synthetase a. Single Point Percentage Inhibition
The activity of the pathogenic aaRSs was monitored by measuring AMP production using the commercial kit AMP-Glo (Promega, Madison, USA).
Ligand stock solutions were prepared in 100% DMSO at 10 mM concentration. An assay buffer consisting of 100 mM Tris HCl pH 7.6, 40 mM MgCl, 20 mM KCl and 150 mM NaCl was prepared in dH2O. An enzyme solution containing 51.77 μM IleRS was prepared in assay buffer to provide 30 nM final assay concentration and 75 nM reservoir concentration for a 1:2.5 dilution in the assay. A substrate solution was also prepared in assay buffer with 50 mM L-isoleucine, 10 mM ATP and 100 mg/mL tRNA. A final assay concentration of 500 μM L-isoleucine, 5 μM ATP and 1 mg/mL tRNA and reservoir concentration of 833.33 μM L-isoleucine, 8.33 μM ATP and 1.67 mg/mL tRNA was used for a 1:1.66 dilution in assay.
Enzyme percentage inhibition values were recorded in triplicate at a single point concentration of 100 μM.
Using the same enzymatic assay in a 384-well plate format, ten point concentration response curves were generated for each compound using a top concentration of 100 μM. The known inhibitor, IleAMS was used as a positive control for the IleRS assay. 100% DMSO was used as a negative control. The IC50 was calculated based on non-linear regression analysis.

E. coli ATCC 25922 = assay: Efficacy in a murine model of disseminated infection (microbial burden in blood, kidney, spleen); format: in vivo; details: mouse; 30 mg/kg sc once at 1 hr post-infection; harvest 5 hr
[5] = Acinetobacter baumannii, read-out: Antibacterial Activity (MIC), E = A. baumannii B1931
[6] = Enterobacter cloacae, read-out: Antibacterial Activity (MIC), B = Enterobacter cloacae B1966
[7] = Escherichia coli, ATCC25922, read-out: Antibacterial Activity (MIC), A = E. coli ATCC 25922
[8] = Klebsiella pneumoniae, ATCC700603, read-out: Antibacterial Activity (MIC), C = K. pneumoniae ATCC 700603
[9] = Pseudomonas aeruginosa, ATCC27853, read-out: Antibacterial Activity (MIC), D = P. aeruginosa ATCC 27853
[10] = 10 mg/kg/dose iv at 24, 36, 48 and 60 hr

CC(C)C[C@H](N)C(=O)N=[S@](N)(=O)c1cc(Cl)cs1.Cl [ANASIA-124-1]
Reduction in burden from vehicle control, Bladder 72 hr (E. coli UT189; 15 mg/kg/dose sc every 4 hours): 1.24 Log10 cfu/g or mL | Reduction in burden from vehicle control, Kidney 72 hr (E. coli UT189; 15 mg/kg/dose sc every 4 hours): 1.60 Log10 cfu/g or mL | Reduction in burden from vehicle control, Urine 48 hr (E. coli UT189; 15 mg/kg/dose sc every 4 hours): 0.71 Log10 cfu/g or mL | Reduction in burden from vehicle control, Urine 72 hr (E. coli UT189; 15 mg/kg/dose sc every 4 hours): 0.66 Log10 cfu/g or mL | Reduction in burden from vehicle control, Bladder 72 hr (E. coli UT189; 45 mg/kg/dose sc every 4 hours): 1.38 Log10 cfu/g or mL | Reduction in burden from vehicle control, Kidney 72 hr (E. coli UT189; 45 mg/kg/dose sc every 4 hours): 2.40 Log10 cfu/g or mL | Reduction in burden from vehicle control, Urine 48 hr (E. coli UT189; 45 mg/kg/dose sc every 4 hours): 1.85 Log10 cfu/g or mL | Reduction in burden from vehicle control, Urine 72 hr (E. coli UT189; 45 mg/kg/dose sc every 4 hours): 1.21 Log10 cfu/g or mL | MIC [1, 5]: 8 µg/mL | MIC [1, 6]: 8 µg/mL | MIC [1, 7]: 0.25 µg/mL | MIC ([1]; Escherichia coli, BAA2469, read-out: Antibacterial Activity (MIC), G = E. coli BAA-2469): 1.59 µg/mL | MIC [1, 8]: 16 µg/mL | MIC [1, 9]: 32 µg/mL | IC50 [2]: 21.3 nM

CC[C@H](C)[C@H](N)C(=O)N=S(N)(=O)c1cc2sccc2s1 (stereo partly drawn) [ANASIA-138]
MIC [1, 5]: > 64 µg/mL | MIC [1, 6]: > 64 µg/mL | MIC [1, 7]: > 64 µg/mL | MIC ([1]; Haemophilus influenzae, ATCC49247, read-out: Antibacterial Activity (MIC), F = H. influenzae ATCC 49247): 16 µg/mL (≈ 48.3 µM) | MIC [1, 8]: > 64 µg/mL | MIC [1, 9]: > 64 µg/mL | IC50 at 24 h [3]: > 64 µg/mL | IC50 [4]: 383 nM

O=C(O)c1cn(C2CC2)c2cc(N3CCNCC3)c(F)cc2c1=O [Cinprofloxacin]
Reduction in burden from vehicle control, Bladder 72 hr (E. coli UT189; [10]): 2.74 Log10 cfu/g or mL | Reduction in burden from vehicle control, Kidney 72 hr (E. coli UT189; [10]): 4.12 Log10 cfu/g or mL | Reduction in burden from vehicle control, Urine 48 hr (E. coli UT189; [10]): 5.32 Log10 cfu/g or mL | Reduction in burden from vehicle control, Urine 72 hr (E. coli UT189; [10]): 4.76 Log10 cfu/g or mL

CN(C)c1cc(NC(=O)CNC(C)(C)C)c(O)c2c1C[C@H]1C[C@H]3[C@H](N(C)C)C(O)=C(C(N)=O)C(=O)[C@@]3(O)C(O)=C1C2=O [Tigecycline, tigecycline, reference compound]
Reduction in burden from vehicle control, Blood (E. coli ATCC 25922): 5.13 Log10 cfu/g or mL | Reduction in burden from vehicle control, Kidney (E. coli ATCC 25922): 5.62 Log10 cfu/g or mL | Reduction in burden from vehicle control, Spleen (E. coli ATCC 25922): 5.15 Log10 cfu/g or mL
